These are literature values, as cited in patent EP3173421A1, “PEPTIDIC COMPOUNDS USEFUL AS ANTIBACTERIAL AGENTS” (Universitat de Barcelona, priority 2015, dated 2017).

A word on the MIC: it is the least concentration at which growth counts as inhibited.

Where a SMILES comes first, the peptide text is derived from it. Bridges are numbered along the chain shown (N, C = ends). Where no end group is shown, it is not given here. [ ]: non-standard residue; d: D form. The star is where a group is joined. ξ: configuration not given here. Thr(3ξ) = CC(O)[C@H](N)C(=O)O; Decanoyl = CCCCCCCCCC(=O)*; Nonanoyl = CCCCCCCCC(=O)*; X1 = CC[C@H](C)CCCCC(=O)*; Nle = CCCC[C@H](N)C(=O)O; Dab = NCC[C@H](N)C(=O)O A value given as a limit tells only on which side of the number the result lay.

For data set [1], the system named is Escherichia coli ATCC 8739. The note with it: E coli ATCC8739 (non-resistant); comparative examples, extracted from Rabanal et al. 2015; cited from earlier work.
Data set [2] deals with Staphylococcus aureus ATTC6538. The following applies: S. aureus ATTC6538; comparative examples, extracted from Rabanal et al. 2015; cited from earlier work.
Data set [3] relates to Pseudomonas aeruginosa ATCC 9027. The following applies: P. aeruginosa ATTC9027 (non-resistant); comparative examples, extracted from Rabanal et al. 2015; cited from earlier work.
In the next data set the test system is Escherichia coli MAC21a. The following applies: E coli MAC21 a; comparative examples, extracted from Rabanal et al. 2015; cited from earlier work.
A further data set deals with Escherichia coli VAL 5. The following applies: E coli VAL 5; comparative examples, extracted from Rabanal et al. 2015; cited from earlier work.
The subject of data set [4] is Pseudomonas aeruginosa 38a. The note with it: P. aeruginosa 38a; comparative examples, extracted from Rabanal et al. 2015; cited from earlier work.
The next data set relates to Escherichia coli NDM-1. The note with it: E coli NDM-1; comparative examples, extracted from Rabanal et al. 2015; cited from earlier work.
A further data set has as its system Escherichia coli VAL 10. The note with it: E coli VAL10; comparative examples, extracted from Rabanal et al. 2015; cited from earlier work.
Data set [5] concerns Pseudomonas aeruginosa 36a. The note with it: P. aeruginosa 36a; comparative examples, extracted from Rabanal et al. 2015; cited from earlier work.
For data set [6] the following is noted: after 6h; kidneys versus serum; cited from earlier work.

For the compound “Decanoyl-[Dab]T[Dab]C[Dab][dF]L[Dab][Dab][dC] (cysteine pairing not given here) [Comparative Example 8b]”, the MIC is 2 µg/mL in data set [1], 8 µg/mL in [2] and 4 µg/mL in data set [3].

As for “polymyxin E (colistin) [polymyxin E (colistin) (8e)]”, the minimal inhibitory concentration (MIC) is 0.25 µg/mL in the data set on Escherichia coli MAC21a; 0.25 µg/mL in the data set on Escherichia coli VAL 5; 1 µg/mL in [4]; 0.5 µg/mL in the data set on Escherichia coli NDM-1; 0.5 µg/mL in the data set on Escherichia coli VAL 10; 1 µg/mL in data set [3]. In data set [5], the minimum inhibitory concentration (MIC) is 1 µg/mL.

On to “Decanoyl-[Dab]T[Dab]C[Dab][dF][Nle][Dab][Dab][dC] (cysteine pairing not given here) [Comparative Example 8c]”, for which the MIC is 0.5 µg/mL with Escherichia coli MAC21a; 0.5 µg/mL with Escherichia coli VAL 5; 0.5 µg/mL in data set [4]; 2 µg/mL in data set [1]; 0.5 µg/mL with Escherichia coli NDM-1; 4 µg/mL in data set [2]. The minimum inhibitory concentration (MIC) in the data set on Escherichia coli VAL 10 was 0.5 µg/mL; in data set [3] it was 1 µg/mL.

For “Nonanoyl-[Dab]T[Dab]C[Dab][dF]L[Dab][Dab]C (cysteine pairing not given here) [Comparative Example 8a]”, the MIC is 4 µg/mL in data set [1], >32 µg/mL in data set [2] and 8 µg/mL in [3].

`CC[C@H](C)CCCCC(=O)N[C@@H](CCN)C(=O)N[C@H](C(=O)N[C@@H](CCN)C(=O)N[C@H]1CCNC(=O)[C@H](C(C)O)NC(=O)[C@H](CCN)NC(=O)[C@H](CCN)NC(=O)[C@H](CC(C)C)NC(=O)[C@@H](Cc2ccccc2)NC(=O)[C@H](CCN)NC1=O)C(C)O` (stereo partly shown) [polymyxin B (8d), Polymyxin B] (X1-[Dab][Thr(3ξ)][Dab][Dab][Dab][dF]L[Dab][Dab][Thr(3ξ)]; lactam 4-C): in data set [6], the “concentration in kidneys as multiple of the serum concentration” value was “more than 30”.
